Source: patent publication US20200138854A1, “Method of Detecting and Quantifying Bile Acid from Saliva” (Ironwood Pharmaceuticals, Inc., priority 2017, published 2020)
Several values for one entry are separate records, joined by “and”; a condition that tells them apart may be missing. Identical values can stand only once. Like-named read-outs stand apart in the source and are kept apart here. Marks after values point to notes of the source that are not given here.

What was measured:
[1] = system: conscious, pentagastrin-stimulated fistula dog; settings: cited from earlier work
[2] = system: intragastric pH; settings: cited from earlier work
[3] = Long-term (1 month at −20° C. and −80° C.) stability in untreated human saliva; settings: for % Bias QC-High / % CV QC-High / Difference from Fresh (%) QC-High / Mean concentration QC-High / Concentration QC-High / Fresh QCs (Batch 34) Mean at Time Zero, QC-High: untreated human saliva; for Concentration QC-High: run 35; for % Bias / Concentration, Mean / Difference from Fresh (%) / Concentration: 1 month; for Concentration: individual values
[4] = 1 month
[5] = Frozen (−20° C.) short-term stability in cholestyramine-treated human saliva; settings: for Concentration QC-LLOQ / Concentration QC-Mid / Concentration QC-High: run 33; for % Bias / Concentration, Mean / Concentration: −20° C.; for Concentration: individual values
Protocol: Quality control samples for the evaluation of accuracy and precision and for run acceptance were prepared on the day of sample extraction. QC samples prepared in cholestyramine-treated saliva are to be prepared in small volumes for analysis. Stability for these QC samples would be limited to short-term storage (i.e., 2 days) whereas untreated human saliva would be evaluated for long-term storage.
For stability in cholestyramine-treated human saliva, samples were prepared by spiking cholestyramine-treated human saliva with each analyte at the QC-LLOQ, QC-Low, QC-Mid and QC-High levels. The samples were stored in a −20° C. freezer. After 1 day and 2 days of storage, each sample was extracted in replicates of four for analysis.

[6] = in vivo, 3 h
[7] = 1 month −20° C. storage, nominal 80.0 ng/mL
[8] = 1 month −80° C. storage, nominal 80.0 ng/mL
[9] = 1 Day at −20° C., nominal 0.500 ng/mL
[10] = 1 Day at −20° C., nominal 8.00 ng/mL
[11] = 1 Day at −20° C., nominal 80.0 ng/mL
[12] = 2 Days at −20° C., nominal 0.500 ng/mL
[13] = 2 Days at −20° C., nominal 8.00 ng/mL
[14] = 2 Days at −20° C., nominal 80.0 ng/mL
[15] = −20° C. Storage, QC-High, nominal 80.0 ng/mL
[16] = −80° C. Storage, QC-High, nominal 80.0 ng/mL
[17] = 1 Day, QC-High, nominal 80.0 ng/mL
[18] = 1 Day, QC-LLOQ, nominal 0.500 ng/mL
[19] = 1 Day, QC-Mid, nominal 8.00 ng/mL
[20] = 2 Days, QC-High, nominal 80.0 ng/mL
[21] = 2 Days, QC-LLOQ, nominal 0.500 ng/mL
[22] = 2 Days, QC-Mid, nominal 8.00 ng/mL

In the case of `COC(=O)Nc1cccc(C)c1CNc1cccn2c(C)c(C)nc12` [BY841, (8-(2-methoxycarbonylamino-6-methyl-phenylmethylamino)-2,3-dimethyl-imidazo [1,2-a]-pyridine)], the “intragastric pH” value [1] is given as no more than 6, the “pH elevation compared with ranitidine and omeprazole” value [1] is given as “superior to both ranitidine and omeprazole” and the “effectiveness in comparison with the standard dose of omeprazole” value ([2]; 50 mg or 100 mg twice daily, Day one of treatment) is given as “markedly more effective”. For the same compound, the “potency in comparison with the standard dose of omeprazole” value ([2]; 50 mg or 100 mg twice daily, following repeated daily administration) was “at least as potent as omeprazole” and the “intragastric pH” value ([2]; single 50 mg oral dose) was “about 6”.
In the case of `CC(CCC(=O)NCC(=O)O)C1CCC2C3C(O)CC4CC(O)CCC4(C)C3CCC12C` (stereo not shown) [Glycochenodeoxycholic Acid, Glycochenodeoxycholic acid], the “% Bias QC-High” value [3, 7] is reported as −4.9%, the “% CV QC-High” value [3, 7] is reported as 2.4% and the “Difference from Fresh (%) QC-High” value [3, 7] is reported as −4.4%. For the same compound, the “Mean concentration QC-High” value [3, 7] was 76.1 ng/mL, the “Concentration QC-High” value [3, 7] was 74.0 ng/mL and 77.4 ng/mL and 76.9 ng/mL and the “% Bias QC-High” value [3, 8] was −3.6%. For the same compound, the “% CV QC-High” value [3, 8] was 5.0%, the “Difference from Fresh (%) QC-High” value [3, 8] was −3.1% and the “Mean concentration QC-High” value [3, 8] was 77.1 ng/mL. The “Concentration QC-High” value [3, 8] was 80.6 ng/mL and 77.8 ng/mL and 73.0 ng/mL, the “Fresh QCs (Batch 34) Mean at Time Zero, QC-High” value ([3]; reference for −20° C. storage, nominal 80.0 ng/mL) was 79.6 ng/mL and the “Fresh QCs (Batch 34) Mean at Time Zero, QC-High” value ([3]; reference for −80° C. storage, nominal 80.0 ng/mL) was 79.6 ng/mL. The “Long-term stability in untreated human saliva” value (“Long-term stability” for short) [4] was “up to 1 month”, the “Stability in Untreated Human Saliva” value [4] was 1 Month and the “% Bias QC-LLOQ” value [5, 9] was 9.1%. For the same compound, the “% CV QC-LLOQ” value [5, 9] was 4.7%, the “Mean concentration QC-LLOQ” value [5, 9] was 0.546 ng/mL and the “Concentration QC-LLOQ” value [5, 9] was 0.538 ng/mL and 0.551 ng/mL and 0.516 ng/mL and 0.578 ng/mL. For the same compound, the “% Bias QC-Mid” value [5, 10] was −2.4%, the “% CV QC-Mid” value [5, 10] was 2.4% and the “Mean concentration QC-Mid” value [5, 10] was 7.81 ng/mL. The “Concentration QC-Mid” value [5, 10] was 7.56 ng/mL and 7.99 ng/mL and 7.92 ng/mL and 7.76 ng/mL, the “% Bias QC-High” value [5, 11] was −1.3% and the “% CV QC-High” value [5, 11] was 2.2%. The “Mean concentration QC-High” value [5, 11] was 78.9 ng/mL, the “Concentration QC-High” value [5, 11] was 79.3 ng/mL and 80.9 ng/mL and 76.6 ng/mL and 78.9 ng/mL and the “% Bias QC-LLOQ” value [5, 12] was 16.5%. For the same compound, the “% CV QC-LLOQ” value [5, 12] was 4.1%, the “Mean concentration QC-LLOQ” value [5, 12] was 0.583 ng/mL and the “Concentration QC-LLOQ” value [5, 12] was 0.596 ng/mL and 0.597 ng/mL and 0.555 ng/mL and 0.674^a ng/mL. For the same compound, the “% Bias QC-Mid” value [5, 13] was 2.1%, the “% CV QC-Mid” value [5, 13] was 3.8% and the “Mean concentration QC-Mid” value [5, 13] was 8.17 ng/mL. For the same compound, the “Concentration QC-Mid” value [5, 13] was 7.71 ng/mL and 8.40 ng/mL and 8.22 ng/mL and 8.33 ng/mL, the “% Bias QC-High” value [5, 14] was 0.9% and the “% CV QC-High” value [5, 14] was 2.9%. The “Mean concentration QC-High” value [5, 14] was 80.8 ng/mL, the “Concentration QC-High” value [5, 14] was 78.3 ng/mL and 80.4 ng/mL and 80.3 ng/mL and 84.0 ng/mL and the “Short-term stability in cholestyramine-treated human saliva” value (“Short-term stability” below) [5] was “up to 2 days”. For the same compound, the “Stability in Treated Human Saliva” value [5] was 2 days.
With `C[C@H](CCC(=O)O)[C@H]1CC[C@H]2[C@@H]3CC[C@@H]4C[C@H](O)CC[C@]4(C)[C@H]3C[C@H](O)[C@]12C` [Deoxycholic Acid, Deoxycholic acid] the “Long-term stability” value ([3]; at 80° C. (sic)) was “up to 1 month”, the “Stability in Untreated Human Saliva” value ([3]; at −20° C.) was 1 Month and the “Stability in Untreated Human Saliva” value ([3]; at −80° C.) was 1 Month. The “Short-term stability” value [5] was “up to 2 days”, the “Stability in Treated Human Saliva” value [5] was 2 days and the “Concentration in human saliva samples” value [6] was 1.65 ng/mL.
For `CC(CCC(=O)NCC(=O)O)C1CCC2C3CCC4CC(O)CCC4(C)C3CC(O)C12C` (stereo not shown) [Glycodeoxycholic Acid, Glycodeoxycholic acid], the “% Bias” value [3, 15] was −3.9%, the “Concentration, Mean” value [3, 15] was 76.9 ng/mL and the “Difference from Fresh (%)” value [3, 15] was 0.7%. For the same compound, the Concentration [3, 15] was 75.5 ng/mL and 75.9 ng/mL and 79.2 ng/mL, the “% Bias” value [3, 16] was −0.1% and the “Concentration, Mean” value [3, 16] was 79.9 ng/mL. For the same compound, the “Difference from Fresh (%)” value [3, 16] was 4.7%, the Concentration [3, 16] was 81.9 ng/mL and 80.0 ng/mL and 77.8 ng/mL and the “Fresh QCs (Batch 34) Mean at Time Zero” value ([3]; QC-High, nominal 80.0 ng/mL) was 76.3 ng/mL. The “Long-term stability” value [4] was “up to 1 month”, the “Stability in Untreated Human Saliva” value [4] was 1 Month and the “Short-term stability” value [5] was “up to 2 days”. The “Stability in Treated Human Saliva” value [5] was 2 days, the “% Bias” value [5, 17] was −5.0% and the “Concentration, Mean” value [5, 17] was 76.0 ng/mL. For the same compound, the Concentration [5, 17] was 76.0 ng/mL and 78.9 ng/mL and 73.6 ng/mL and 75.5 ng/mL, the “% Bias” value [5, 18] was −1.1% and the “Concentration, Mean” value [5, 18] was 0.495 ng/mL. For the same compound, the Concentration [5, 18] was 0.500 ng/mL and 0.472 ng/mL and 0.488 ng/mL and 0.519 ng/mL, the “% Bias” value [5, 19] was −5.0% and the “Concentration, Mean” value [5, 19] was 7.60 ng/mL. The Concentration [5, 19] was 7.43 ng/mL and 8.14 ng/mL and 7.61 ng/mL and 7.21 ng/mL, the “% Bias” value [5, 20] was −6.1% and the “Concentration, Mean” value [5, 20] was 75.2 ng/mL. The Concentration [5, 20] was 74.0 ng/mL and 73.3 ng/mL and 75.6 ng/mL and 77.7 ng/mL, the “% Bias” value [5, 21] was 15.0% and the “Concentration, Mean” value [5, 21] was 0.575 ng/mL. For the same compound, the Concentration [5, 21] was 0.654^a ng/mL and 0.589 ng/mL and 0.551 ng/mL and 0.599 ng/mL, the “% Bias” value [5, 22] was 2.5% and the “Concentration, Mean” value [5, 22] was 8.20 ng/mL. For the same compound, the Concentration [5, 22] was 7.91 ng/mL and 7.87 ng/mL and 8.54 ng/mL and 8.49 ng/mL.
